Laboratory results published in patent publication EP3681856B1, “COMPOUNDS HAVING PRESERVATIVE, ANTIMICROBIAL AND ANTISEPTIC ACTIVITY” (Universita' degli Studi di Milano, priority 2017, dated 2019).

Experiments:
Type in all cases: cell-based
[1] = system: Escherichia coli ATCC25922; experiment: disc diffusion antimicrobial susceptibility test (EUCAST); conditions: MHA, 1000 to 125 µg/mL, 37°C, 16-20 h, compared with domiphen bromide
Method: The antimicrobial susceptibility tests were effected by the disc diffusion method as indicated by EUCAST (European Committee on Antimicrobial Susceptibility Testing). The plates were prepared with Mueller Hinton Agar (MHA) medium into which microbial suspensions of Escherichia coli ATCC25922 and Staphylococcus aureus ATCC25923 were inoculated at a concentration of about 2×10^8 CFU/mL. Sterile discs were then placed on each plate and subsequently inoculated with successive concentrations of the two chemical compounds analysed (domiphen bromide and para-bromo domiphen bromide), together with a positive control (chloramphenicol) and a negative control (MH broth). The plates were then incubated at 37°C in aerobiosis for 16-20 h. After incubation, any inhibition zone due to the potential antimicrobial activity was measured with a ruler, and the activities of the two molecules were compared. In Figure 6 and Figure 7: • TQ= concentration of compound amounting to 1000 µg/mL 1:2= concentration of compound amounting to 500 µg/mL • 1:4= concentration of compound amounting to 250 µg/mL • 1:8= concentration of compound amounting to 125 µg/mL • CHL= chloramphenicol (antibiotic) • CNEG= negative control (MHB).

[2] = system: Staphylococcus aureus ATCC25923; experiment: as above; conditions: MHA, 1000 to 125 µg/mL, 37°C, 16-20 h
Method: The antimicrobial susceptibility tests were effected by the disc diffusion method as indicated by EUCAST (European Committee on Antimicrobial Susceptibility Testing). The plates were prepared with Mueller Hinton Agar (MHA) medium into which microbial suspensions of Escherichia coli ATCC25922 and Staphylococcus aureus ATCC25923 were inoculated at a concentration of about 2×10^8 CFU/mL. Sterile discs were then placed on each plate and subsequently inoculated with successive concentrations of the two chemical compounds analysed (domiphen bromide and para-bromo domiphen bromide), together with a positive control (chloramphenicol) and a negative control (MH broth). The plates were then incubated at 37°C in aerobiosis for 16-20 h. After incubation, any inhibition zone due to the potential antimicrobial activity was measured with a ruler, and the activities of the two molecules were compared. In Figure 8 and Figure 9: • TQ= concentration of compound amounting to 1000 µg/mL • 1:2= concentration of compound amounting to 500 µg/mL • 1:4= concentration of compound amounting to 250 µg/mL • 1:8= concentration of compound amounting to 125 µg/mL • CHL= chloramphenicol (antibiotic) • CNEG= negative control (MHB).

[3] = system: Bacillus cereus DSM31; experiment: MIC evaluation, broth microdilution method (CLSI); conditions: summary statement in words
Source text: (§1) Tests were then effected on the two bacteria analysed with the agar diffusion test and on two other microorganisms such as Pseudomonas aeruginosa DSM 22644 (PAO1) and Bacillus cereus DSM31 to evaluate the Minimum Inhibitory Concentration (MIC), i.e. the lowest concentration of compound able to inhibit the growth of a microorganism. The method used was the broth microdilution method (CLSI - Clinical and Laboratory Standards Institute). Briefly, the procedure involved the preparation of serial dilutions of the antimicrobial agent (256 to 0.125 mg/1) distributed in a 96-well microtiter plate (microdilution). Each well was then inoculated with the reference microbial strain at the concentration of about […] (0.5 McFarlands). The 96-well microtiter plates were then incubated at 37°C.

[4] = system: E. coli; experiment: MIC evaluation, broth microdilution method (CLSI); conditions: Escherichia coli, 37°C
Source text: as §1

[5] = system: Pseudomonas aeruginosa DSM 22644 (PAO1); experiment: MIC evaluation, broth microdilution method (CLSI); conditions: summary statement in words
Source text: as §1

[6] = system: S. aureus; experiment: MIC evaluation, broth microdilution method (CLSI); conditions: Staphylococcus aureus, 37°C
Source text: as §1

[7] = system: Candida humilis UMY12 (UNIMI collection); experiment: disc diffusion test on yeast; conditions: MHA with 2% glucose, 5120 µg/mL, preliminary tests
Method: Some preliminary tests were also effected to evaluate the activity against eukaryotic microorganisms such as yeasts.
The disc diffusion method was applied again, using the yeast Candida humilis UMY12 (UNIMI collection).
2% glucose was added to the MHA medium, and the concentration of the suspension amounted to about 3×10^6 CFU/mL. The concentration of the chemical compounds amounted to 5120 µg/mL for both compounds.

Structure (SMILES)	antimicrobial activity (inhibition zone) towards E. coli [1]	antimicrobial activity (inhibition zone) towards S. aureus [2]	activity compared with domiphen against Bacillus cereus [3]	MIC [4]	activity compared with domiphen against Pseudomonas aeruginosa [5]	MIC [6]	antimicrobial activity against yeast [7]
CCCCCCCCCCCC[N+](C)(C)CCOc1ccc(Br)cc1 [compound of formula (Ia), (dodecyldimethyl-2-p-bromophenoxyethyl)ammonium bromide]	comparable with that of domiphen bromide	exhibits antimicrobial activity	more active than domiphen	8 µg/mL	more active than domiphen	1 µg/mL	almost the same antimicrobial activity
CCCCCCCCCCCC[N+](C)(C)CCOc1ccccc1 [domiphen bromide, Domiphen bromide, reference compound]	–	–	–	8 µg/mL	–	1 µg/mL	almost the same antimicrobial activity
